From the NIST ThermoML archive (doi:10.1016/j.jct.2013.03.013)
± gives the expanded uncertainty stated by the source.

Settings: Liquid, Vibrating wire viscometry

C=C(F)C(F)(F)F [2,3,3,3-tetrafluoro-1-propene]
Settings | viscosity [mPa·s]
243.16 K, 99 kPa | 0.2892 ± 0.0074
243.16 K, 1000 kPa | 0.2913 ± 0.0074
243.16 K, 3000 kPa | 0.2982 ± 0.0075
243.16 K, 5000 kPa | 0.3049 ± 0.0077
243.16 K, 10000 kPa | 0.3212 ± 0.008
243.16 K, 15000 kPa | 0.3397 ± 0.0083
243.16 K, 20000 kPa | 0.3572 ± 0.0086
243.16 K, 25000 kPa | 0.3748 ± 0.0089
243.16 K, 30000 kPa | 0.3927 ± 0.0093
253.16 K, 151 kPa | 0.2554 ± 0.0068
253.16 K, 1000 kPa | 0.258 ± 0.0068
253.16 K, 3000 kPa | 0.2638 ± 0.0069
253.16 K, 5000 kPa | 0.2708 ± 0.007
253.16 K, 10000 kPa | 0.2877 ± 0.0073
253.16 K, 15000 kPa | 0.3038 ± 0.0076
253.16 K, 20000 kPa | 0.3201 ± 0.0079
253.16 K, 25000 kPa | 0.3362 ± 0.0082
253.16 K, 30000 kPa | 0.3517 ± 0.0085
263.16 K, 222 kPa | 0.2265 ± 0.0063
263.16 K, 1000 kPa | 0.229 ± 0.0063
263.16 K, 3000 kPa | 0.2355 ± 0.0064
263.16 K, 5000 kPa | 0.242 ± 0.0065
263.16 K, 10000 kPa | 0.2581 ± 0.0068
263.16 K, 15000 kPa | 0.2731 ± 0.0071
263.16 K, 20000 kPa | 0.2894 ± 0.0074
263.16 K, 25000 kPa | 0.3035 ± 0.0076
263.16 K, 30000 kPa | 0.3178 ± 0.0079
273.15 K, 316 kPa | 0.2019 ± 0.0059
273.15 K, 1000 kPa | 0.2033 ± 0.0059
273.15 K, 3000 kPa | 0.21 ± 0.006
273.15 K, 5000 kPa | 0.2162 ± 0.0061
273.15 K, 10000 kPa | 0.2313 ± 0.0064
273.15 K, 15000 kPa | 0.2457 ± 0.0066
273.15 K, 20000 kPa | 0.2601 ± 0.0069
273.15 K, 25000 kPa | 0.2744 ± 0.0071
273.15 K, 30000 kPa | 0.2874 ± 0.0073
283.14 K, 438 kPa | 0.1796 ± 0.0055
283.14 K, 1000 kPa | 0.1815 ± 0.0055
283.14 K, 3000 kPa | 0.1873 ± 0.0056
283.14 K, 5000 kPa | 0.194 ± 0.0057
283.14 K, 10000 kPa | 0.2079 ± 0.006
283.14 K, 15000 kPa | 0.2222 ± 0.0062
283.14 K, 20000 kPa | 0.2356 ± 0.0064
283.14 K, 25000 kPa | 0.2487 ± 0.0067
283.14 K, 30000 kPa | 0.262 ± 0.0069
293.15 K, 592 kPa | 0.1612 ± 0.0053
293.15 K, 1000 kPa | 0.1636 ± 0.0053
293.15 K, 3000 kPa | 0.169 ± 0.0054
293.15 K, 5000 kPa | 0.1755 ± 0.0055
293.15 K, 10000 kPa | 0.1885 ± 0.0057
293.15 K, 15000 kPa | 0.2018 ± 0.0059
293.15 K, 20000 kPa | 0.2152 ± 0.0061
293.15 K, 25000 kPa | 0.2287 ± 0.0063
293.15 K, 30000 kPa | 0.2414 ± 0.0065
303.15 K, 784 kPa | 0.1425 ± 0.005
303.15 K, 1000 kPa | 0.1434 ± 0.005
303.15 K, 3000 kPa | 0.149 ± 0.0051
303.15 K, 5000 kPa | 0.1554 ± 0.0051
303.15 K, 10000 kPa | 0.1696 ± 0.0054
303.15 K, 15000 kPa | 0.1834 ± 0.0056
303.15 K, 20000 kPa | 0.1965 ± 0.0058
303.15 K, 25000 kPa | 0.2092 ± 0.006
303.15 K, 30000 kPa | 0.2215 ± 0.0062
313.14 K, 1019 kPa | 0.1259 ± 0.0047
313.14 K, 3000 kPa | 0.1324 ± 0.0048
313.14 K, 5000 kPa | 0.1392 ± 0.0049
313.14 K, 10000 kPa | 0.1543 ± 0.0051
313.14 K, 15000 kPa | 0.1681 ± 0.0053
313.14 K, 20000 kPa | 0.1808 ± 0.0055
313.14 K, 25000 kPa | 0.1929 ± 0.0057
313.14 K, 30000 kPa | 0.2046 ± 0.0059
323.16 K, 1303 kPa | 0.1103 ± 0.0045
323.16 K, 3000 kPa | 0.1169 ± 0.0046
323.16 K, 5000 kPa | 0.1239 ± 0.0047
323.16 K, 10000 kPa | 0.1396 ± 0.0049
323.16 K, 15000 kPa | 0.1536 ± 0.0051
323.16 K, 20000 kPa | 0.1664 ± 0.0053
323.16 K, 25000 kPa | 0.1783 ± 0.0055
323.16 K, 30000 kPa | 0.1893 ± 0.0057
333.16 K, 1643 kPa | 0.0965 ± 0.0044
333.16 K, 3000 kPa | 0.1031 ± 0.0044
333.16 K, 5000 kPa | 0.1108 ± 0.0045
333.16 K, 10000 kPa | 0.127 ± 0.0047
333.16 K, 15000 kPa | 0.141 ± 0.0049
333.16 K, 20000 kPa | 0.1537 ± 0.0051
333.16 K, 25000 kPa | 0.1656 ± 0.0053
333.16 K, 30000 kPa | 0.1762 ± 0.0055
343.16 K, 2046 kPa | 0.0832 ± 0.0042
343.16 K, 3000 kPa | 0.0885 ± 0.0043
343.16 K, 5000 kPa | 0.0976 ± 0.0044
343.16 K, 10000 kPa | 0.115 ± 0.0046
343.16 K, 15000 kPa | 0.1291 ± 0.0048
343.16 K, 20000 kPa | 0.1417 ± 0.0049
343.16 K, 25000 kPa | 0.1534 ± 0.0051
343.16 K, 30000 kPa | 0.1644 ± 0.0053
353.16 K, 2521 kPa | 0.0685 ± 0.0043
353.16 K, 3000 kPa | 0.0731 ± 0.0042
353.16 K, 5000 kPa | 0.0846 ± 0.0042
353.16 K, 10000 kPa | 0.1035 ± 0.0044
353.16 K, 15000 kPa | 0.1189 ± 0.0046
353.16 K, 20000 kPa | 0.1314 ± 0.0048
353.16 K, 25000 kPa | 0.1424 ± 0.0049
353.16 K, 30000 kPa | 0.1527 ± 0.0051
363.16 K, 3081 kPa | 0.0521 ± 0.0043
363.16 K, 5000 kPa | 0.0732 ± 0.0042
363.16 K, 10000 kPa | 0.093 ± 0.0043
363.16 K, 15000 kPa | 0.109 ± 0.0045
363.16 K, 20000 kPa | 0.1211 ± 0.0047
363.16 K, 25000 kPa | 0.1322 ± 0.0048
363.16 K, 30000 kPa | 0.1429 ± 0.005
